Literature values, collected in US8680078B2, “Stable ophthalmic formulations” (Medivis SRL, priority 2008, dated 2014).
Like-named read-outs stand apart in the source and are kept apart here.

How the values were obtained:
[1] = pH of 5.6

SMILES | time taken by the concentration of latanoprost to drop to 90% of an initial content (50° C.) | time taken by the concentration of latanoprost to drop to 90% of an initial content (75° C.) | maximum solubility [1]
CC(C)OC(=O)CCC/C=C\C[C@@H]1[C@@H](CC[C@@H](O)CCc2ccccc2)[C@H](O)C[C@@H]1O [Latanoprost, latanoprost] | 198 h | 32 h | 
CCN[C@H]1C[C@H](C)S(=O)(=O)c2sc(S(N)(=O)=O)cc21.Cl [dorzolamide hydrochloride] |  |  | about 50 mg/mL
